ChEMBL document CHEMBL1201862, “PubChem BioAssay data set” (2004)
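Five concentrations, 48 hours, 96-well plates. GI50 marks 50% less growth.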 Active and inactive are the calls of the source. Cut-off read from the data, not from the text of the source: active = GI50 up to about 1.1 µM and inactive = higher.

Key:
Experiment in all cases: inhibition of tumour cell growth, NCI panel, 48 h
NCI-H23 = tested on: NCI-H23
M14 = tested on: M14
OVCAR-5 = tested on: OVCAR-5
M19-MEL = tested on: M19-MEL
SNB-75 = tested on: SNB-75
EKVX = tested on: EKVX
HOP-18 = tested on: HOP-18
SK-MEL-5 = tested on: SK-MEL-5
ACHN = tested on: ACHN
UO-31 = tested on: UO-31
RXF 393 = tested on: RXF 393
TK-10 = tested on: TK-10
XF498 = tested on: XF498
HL-60 = tested on: HL-60
RXF 631 = tested on: RXF 631
786-0 = tested on: 786-0
COLO 205 = tested on: COLO 205
OVCAR-8 = tested on: OVCAR-8
HOP-62 = tested on: HOP-62
KM12 = tested on: KM12
HT-29 = tested on: HT-29
DMS-273 = tested on: DMS-273
A498 = tested on: A498
HCT-15 = tested on: HCT-15
LOX IMVI = tested on: LOX IMVI
SF-295 = tested on: SF-295
CCRF-CEM = tested on: CCRF-CEM
Malme-3M = tested on: Malme-3M
SK-MEL-2 = tested on: SK-MEL-2
SK-MEL-28 = tested on: SK-MEL-28
IGROV-1 = tested on: IGROV-1
SN12C = tested on: SN12C
DLD-1 = tested on: DLD-1
SW-620 = tested on: SW-620
SR = tested on: SR
HCT-116 = tested on: HCT-116
SNB-78 = tested on: SNB-78
K562 = tested on: K562
SF-539 = tested on: SF-539
UACC-62 = tested on: UACC-62
SF-268 = tested on: SF-268
UACC-257 = tested on: UACC-257
A549 = tested on: A549
LXFL 529 = tested on: LXFL 529
RPMI-8226 = tested on: RPMI-8226
HOP-92 = tested on: HOP-92
KM-20L2 = tested on: KM-20L2
U-251 = tested on: U-251
MOLT-4 = tested on: MOLT-4
CAKI-1 = tested on: CAKI-1
OVCAR-3 = tested on: OVCAR-3
NCI-H226 = tested on: NCI-H226
NCI-H460 = tested on: NCI-H460
DMS-114 = tested on: DMS-114
HCC 2998 = tested on: HCC 2998
OVCAR-4 = tested on: OVCAR-4
SK-OV-3 = tested on: SK-OV-3

C/C(CCc1ccccc1)=N\NC(N)=S
GI50 (NCI-H23): > 100 µM (inactive) | GI50 (M14): > 100 µM (inactive) | GI50 (OVCAR-5): > 100 µM (inactive) | GI50 (M19-MEL): 74.8 µM (inactive) | GI50 (SNB-75): 76.4 µM (inactive) | GI50 (EKVX): 72.4 µM (inactive) | GI50 (HOP-18): > 100 µM (inactive) | GI50 (SK-MEL-5): 95.3 µM (inactive) | GI50 (ACHN): > 100 µM (inactive) | GI50 (UO-31): > 100 µM (inactive) | GI50 (RXF 393): 42.3 µM (inactive) | GI50 (TK-10): > 100 µM (inactive) | GI50 (XF498): 43.4 µM (inactive) | GI50 (HL-60): > 100 µM (inactive) | GI50 (RXF 631): > 100 µM (inactive) | GI50 (786-0): > 100 µM (inactive) | GI50 (COLO 205): > 100 µM (inactive) | GI50 (OVCAR-8): > 100 µM (inactive) | GI50 (HOP-62): > 100 µM (inactive) | GI50 (KM12): > 100 µM (inactive) | GI50 (HT-29): 27.8 µM (inactive) | GI50 (DMS-273): > 100 µM (inactive) | GI50 (A498): > 100 µM (inactive) | GI50 (HCT-15): > 100 µM | GI50 (LOX IMVI): > 100 µM (inactive) | GI50 (SF-295): > 100 µM (inactive) | GI50 (CCRF-CEM): 75.5 µM (inactive) | GI50 (Malme-3M): > 100 µM (inactive) | GI50 (SK-MEL-2): > 100 µM (inactive) | GI50 (SK-MEL-28): > 100 µM (inactive) | GI50 (IGROV-1): > 100 µM (inactive) | GI50 (SN12C): > 100 µM (inactive) | GI50 (DLD-1): > 100 µM (inactive) | GI50 (SW-620): > 100 µM (inactive) | GI50 (SR): 75.2 µM (inactive) | GI50 (HCT-116): > 100 µM (inactive) | GI50 (SNB-78): > 100 µM (inactive) | GI50 (K562): > 100 µM (inactive) | GI50 (SF-539): 37.2 µM (inactive) | GI50 (UACC-62): > 100 µM (inactive) | GI50 (SF-268): > 100 µM (inactive) | GI50 (UACC-257): > 100 µM (inactive) | GI50 (A549): > 100 µM (inactive) | GI50 (LXFL 529): 43 µM (inactive) | GI50 (RPMI-8226): 27.3 µM (inactive) | GI50 (HOP-92): > 100 µM (inactive) | GI50 (KM-20L2): > 100 µM (inactive) | GI50 (U-251): > 100 µM (inactive) | GI50 (MOLT-4): 72.8 µM (inactive) | GI50 (CAKI-1): > 100 µM (inactive) | GI50 (OVCAR-3): > 100 µM (inactive) | GI50 (NCI-H226): > 100 µM (inactive) | GI50 (NCI-H460): > 100 µM (inactive) | GI50 (DMS-114): 39 µM (inactive) | GI50 (HCC 2998): > 100 µM (inactive) | GI50 (OVCAR-4): > 100 µM (inactive) | GI50 (SK-OV-3): > 100 µM (inactive)
